# In US6399629B1, “Efflux pump inhibitors” (priority 1998, dated 2002):
# System: Pseudomonas aeruginosa PAM1001
# Test: microbe, parasite or virus in culture
# Type: cell-based
# Conditions: Levofloxacin 0.25 μg/mL
# How it was run: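 P. aeruginosa PAM1001 grown in Mueller Hinton broth from 1×10^6 CFU/mL inoculum with levofloxacin 0.25 microg/mL plus varying EPI concentrations; growth followed by A650 over 18 h at 37° C. Result given as % growth inhibition versus levofloxacin-only culture without EPI.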
# [1] = Concentration of Compound 2.5 μg/mL
# [2] = Concentration of Compound 5 μg/mL
# [3] = Concentration of Compound 10 μg/mL
# [4] = Concentration of Compound 20 μg/mL
# [5] = Concentration of Compound 40 μg/mL
Substance,Inhibition (%) of growth of P. aeruginosa PAM1001 [1],Inhibition (%) of growth of P. aeruginosa PAM1001 [2],Inhibition (%) of growth of P. aeruginosa PAM1001 [3],Inhibition (%) of growth of P. aeruginosa PAM1001 [4],Inhibition (%) of growth of P. aeruginosa PAM1001 [5]
trans-4-Glycylamino-D-proline 3-Biphenylamide Dihydrochloride [Compound D307],24%,5%,90%,100%,100%
trans-4-Glycylamino-L-Proline 3-Biphenylamide Dihydrochloride [Compound D306],19%,7%,93%,100%,99%
trans-4-Glycylamino-L-Prolyl-4-(2-Chloro-5-Methylphenoxy)-piperidine Dihydrochloride [Compound D416],21%,11%,87%,99%,99%
